Results reported in article PMC11790914, “Chemogenomics for steroid hormone receptors (NR3)” (Communications Chemistry, 2025).
“And” between values parts separate entries of the source, which are not always exact repeats. Equal values may be shown once. Read-outs that look alike come from different tables or passages of the source.

Tests used:
HEK293T cells [1] = assay: Cytotoxicity: necrosis induction (red fluorescent dye for permeable plasma membranes); assay type: cell-based; conditions: 1 µM, 24 h, necrotic cell count normalized to 0.1% DMSO, single replicates;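 further: compounds applied in DMEM high glucose with 0.1% FCS and 0.1% DMSO, necrotic HEK293T cells counted by red staining of cells whose plasma membranes had become permeable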
ABL1 = molecular target: T1, ABL1 (Homo sapiens, UniProt P00519); assay: Liability panel screening by DSF: ABL1; assay type: binding; conditions: read-out: Mean ΔTM ABL1
T1 construct: made in house
T1 sequence (P00519 whole entry, species assumed): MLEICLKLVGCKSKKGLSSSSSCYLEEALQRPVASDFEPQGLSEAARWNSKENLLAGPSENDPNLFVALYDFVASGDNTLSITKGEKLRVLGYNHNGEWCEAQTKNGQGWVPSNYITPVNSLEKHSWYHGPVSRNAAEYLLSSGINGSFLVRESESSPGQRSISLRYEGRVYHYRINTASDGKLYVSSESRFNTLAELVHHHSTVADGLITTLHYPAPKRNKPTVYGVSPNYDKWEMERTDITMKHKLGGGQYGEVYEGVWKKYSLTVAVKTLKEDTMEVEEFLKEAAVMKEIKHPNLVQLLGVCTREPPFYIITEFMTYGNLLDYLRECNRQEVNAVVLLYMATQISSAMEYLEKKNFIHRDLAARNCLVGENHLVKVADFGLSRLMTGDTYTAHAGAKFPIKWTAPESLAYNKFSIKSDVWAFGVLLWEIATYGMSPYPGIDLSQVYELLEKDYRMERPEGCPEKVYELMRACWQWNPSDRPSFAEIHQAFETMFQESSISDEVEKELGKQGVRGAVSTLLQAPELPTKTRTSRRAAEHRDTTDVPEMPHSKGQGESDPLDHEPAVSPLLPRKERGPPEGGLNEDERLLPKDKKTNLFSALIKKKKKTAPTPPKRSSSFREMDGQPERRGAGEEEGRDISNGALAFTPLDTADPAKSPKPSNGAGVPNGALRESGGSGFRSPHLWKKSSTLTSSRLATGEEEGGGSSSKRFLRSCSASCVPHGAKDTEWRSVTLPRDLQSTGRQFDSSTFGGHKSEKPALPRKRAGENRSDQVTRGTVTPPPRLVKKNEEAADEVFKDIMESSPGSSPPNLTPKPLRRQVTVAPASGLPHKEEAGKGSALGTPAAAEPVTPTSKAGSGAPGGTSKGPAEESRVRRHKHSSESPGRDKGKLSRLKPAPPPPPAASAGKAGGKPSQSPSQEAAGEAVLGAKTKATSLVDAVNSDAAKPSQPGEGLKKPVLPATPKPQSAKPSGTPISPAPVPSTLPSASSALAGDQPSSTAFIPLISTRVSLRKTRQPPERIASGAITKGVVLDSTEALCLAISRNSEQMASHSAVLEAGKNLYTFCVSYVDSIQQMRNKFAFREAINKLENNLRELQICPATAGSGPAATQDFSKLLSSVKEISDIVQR
Method in brief: (§1)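 Recombinant protein at 2 µM in 10 mM HEPES pH 7.5 with 500 mM NaCl was mixed with SYPRO Orange (1:1000) and heated at 3 °C/min up to 85 °C. Tm was taken as the Boltzmann-fit inflection point. Shifts are ∆Tm in K from technical duplicates.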

AURKA = molecular target: T2, AURKA (Homo sapiens, UniProt O14965); assay: Liability panel screening by DSF: AURKA; assay type: binding; conditions: read-out: Mean ΔTM AURKA
T2 construct: made in house
T2 sequence (O14965 1-403): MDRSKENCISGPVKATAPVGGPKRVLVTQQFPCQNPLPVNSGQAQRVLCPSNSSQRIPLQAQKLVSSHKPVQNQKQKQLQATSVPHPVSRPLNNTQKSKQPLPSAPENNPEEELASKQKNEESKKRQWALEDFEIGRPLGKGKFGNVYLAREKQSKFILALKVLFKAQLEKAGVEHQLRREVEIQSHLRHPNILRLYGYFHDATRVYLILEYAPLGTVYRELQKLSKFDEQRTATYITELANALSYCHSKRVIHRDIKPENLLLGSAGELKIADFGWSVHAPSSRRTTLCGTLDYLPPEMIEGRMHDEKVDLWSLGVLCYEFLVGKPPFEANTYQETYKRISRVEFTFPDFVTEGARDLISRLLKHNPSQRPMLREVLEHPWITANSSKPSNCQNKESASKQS
Method in brief: as §1

CDK2 = molecular target: T3, CDK2 (Homo sapiens, UniProt P24941); assay: Liability panel screening by DSF: CDK2; assay type: binding; conditions: read-out: Mean ΔTM CDK2
T3 construct: made in house
Method in brief: as §1

FGFR3 = molecular target: T4, FGFR3 (Homo sapiens, UniProt P22607); assay: Liability panel screening by DSF: FGFR3; assay type: binding; conditions: read-out: Mean ΔTM FGFR3
T4 construct: made in house
T4 sequence (P22607 23-806, species assumed): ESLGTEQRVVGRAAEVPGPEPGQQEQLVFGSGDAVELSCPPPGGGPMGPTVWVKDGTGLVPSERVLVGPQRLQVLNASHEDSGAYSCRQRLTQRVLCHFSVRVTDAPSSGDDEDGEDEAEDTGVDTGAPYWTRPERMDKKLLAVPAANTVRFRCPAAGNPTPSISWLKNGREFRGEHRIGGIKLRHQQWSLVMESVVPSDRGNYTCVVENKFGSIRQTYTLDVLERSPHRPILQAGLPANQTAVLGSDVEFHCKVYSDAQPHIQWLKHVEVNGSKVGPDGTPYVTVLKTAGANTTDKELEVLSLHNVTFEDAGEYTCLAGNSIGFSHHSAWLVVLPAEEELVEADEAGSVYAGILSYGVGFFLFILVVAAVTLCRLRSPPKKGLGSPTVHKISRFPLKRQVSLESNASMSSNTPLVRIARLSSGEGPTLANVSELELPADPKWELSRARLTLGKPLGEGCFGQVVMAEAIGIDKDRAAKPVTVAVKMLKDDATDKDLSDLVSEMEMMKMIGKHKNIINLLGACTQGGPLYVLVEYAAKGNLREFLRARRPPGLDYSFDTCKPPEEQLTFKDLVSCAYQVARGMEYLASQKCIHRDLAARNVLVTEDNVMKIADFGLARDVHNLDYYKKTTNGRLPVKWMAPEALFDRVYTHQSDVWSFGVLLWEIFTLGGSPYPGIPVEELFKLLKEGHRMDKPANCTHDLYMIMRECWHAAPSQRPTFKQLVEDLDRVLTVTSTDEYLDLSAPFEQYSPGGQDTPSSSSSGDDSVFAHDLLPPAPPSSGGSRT
Method in brief: as §1

GSK3B = molecular target: T5, GSK3B (Homo sapiens, UniProt P49841); assay: Liability panel screening by DSF: GSK3B; assay type: binding; conditions: read-out: Mean ΔTM GSK3B
T5 construct: made in house
T5 sequence (P49841 whole entry, species assumed): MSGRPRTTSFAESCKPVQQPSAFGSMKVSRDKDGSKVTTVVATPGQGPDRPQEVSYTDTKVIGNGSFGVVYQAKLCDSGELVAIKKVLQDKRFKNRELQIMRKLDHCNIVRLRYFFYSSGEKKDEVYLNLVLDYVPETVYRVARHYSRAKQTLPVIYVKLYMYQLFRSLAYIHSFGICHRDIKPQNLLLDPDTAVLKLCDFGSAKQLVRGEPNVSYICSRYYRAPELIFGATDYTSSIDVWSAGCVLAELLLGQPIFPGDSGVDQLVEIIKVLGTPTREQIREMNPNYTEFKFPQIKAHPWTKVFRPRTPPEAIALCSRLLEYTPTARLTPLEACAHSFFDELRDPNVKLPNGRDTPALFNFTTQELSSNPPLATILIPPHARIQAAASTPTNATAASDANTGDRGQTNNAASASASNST

BRD4 = molecular target: T6, BRD4 (Homo sapiens, UniProt O60885); assay: Liability panel screening by DSF: BRD4; assay type: binding; conditions: read-out: Mean ΔTM BRD4
T6 construct: This panel comprised ten highly ligandable kinases and bromodomains; made in house
Method in brief: as §1

BRPF1 = molecular target: T7, BRPF1 (Homo sapiens, UniProt P55201); assay: Liability panel screening by DSF: BRPF1; assay type: binding; conditions: read-out: Mean ΔTM BRPF1
T7 construct: This panel comprised ten highly ligandable kinases and bromodomains; made in house
T7 sequence (P55201 628-732 limits assumed): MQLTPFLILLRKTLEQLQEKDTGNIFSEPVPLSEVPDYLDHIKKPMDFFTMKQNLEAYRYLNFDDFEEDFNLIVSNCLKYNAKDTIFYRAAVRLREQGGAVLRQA
Method in brief: as §1

CSNK1D = molecular target: T8, CSNK1D (Homo sapiens, UniProt P48730); assay: Liability panel screening by DSF: CSNK1D; assay type: binding; conditions: read-out: Mean ΔTM CSNK1D
T8 construct: made in house
T8 sequence (P48730 whole entry, species assumed): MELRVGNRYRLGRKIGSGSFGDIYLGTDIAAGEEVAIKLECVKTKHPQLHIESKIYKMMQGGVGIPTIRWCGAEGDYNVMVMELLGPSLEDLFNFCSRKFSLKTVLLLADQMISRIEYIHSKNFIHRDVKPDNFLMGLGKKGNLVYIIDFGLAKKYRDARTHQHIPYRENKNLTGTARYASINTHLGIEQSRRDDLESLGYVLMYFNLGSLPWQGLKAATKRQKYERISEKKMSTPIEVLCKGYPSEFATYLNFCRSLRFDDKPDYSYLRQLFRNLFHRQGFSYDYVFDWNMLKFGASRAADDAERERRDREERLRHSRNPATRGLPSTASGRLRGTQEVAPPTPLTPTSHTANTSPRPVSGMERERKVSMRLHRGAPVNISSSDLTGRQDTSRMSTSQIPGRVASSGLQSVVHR
Method in brief: as §1

MAPK1 = molecular target: T9, MAPK1 (Homo sapiens, UniProt P28482); assay: Liability panel screening by DSF: MAPK1; assay type: binding; conditions: read-out: Mean ΔTM MAPK1
T9 construct: made in house
T9 sequence (P28482 whole entry, species assumed): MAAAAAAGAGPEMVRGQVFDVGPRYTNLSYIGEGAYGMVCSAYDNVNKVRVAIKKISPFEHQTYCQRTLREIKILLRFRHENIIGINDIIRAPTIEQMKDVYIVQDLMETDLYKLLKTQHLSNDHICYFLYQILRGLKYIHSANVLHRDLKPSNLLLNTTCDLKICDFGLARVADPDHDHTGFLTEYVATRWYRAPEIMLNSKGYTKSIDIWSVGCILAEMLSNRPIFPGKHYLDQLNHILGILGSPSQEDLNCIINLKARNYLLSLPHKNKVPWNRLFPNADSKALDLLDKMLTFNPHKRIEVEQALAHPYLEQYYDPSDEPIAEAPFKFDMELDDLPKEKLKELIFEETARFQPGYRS
Method in brief: as §1

TRIM24 = molecular target: T10, TRIM24 (Homo sapiens, UniProt O15164); assay: Liability panel screening by DSF: TRIM24; assay type: binding; conditions: read-out: Mean ΔTM TRIM24
T10 construct: This panel comprised ten highly ligandable kinases and bromodomains; made in house
T10 sequence (O15164 899-1004 limits assumed): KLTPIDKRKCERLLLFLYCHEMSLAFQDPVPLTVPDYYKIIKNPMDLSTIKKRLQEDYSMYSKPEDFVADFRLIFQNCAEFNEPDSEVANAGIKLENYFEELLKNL
Method in brief: as §1

[2] = system: NF-κB activity in HEK293 NF-κB reporter cells; assay: NF-kB activity assay (GFP reporter, ionomycin/PMA); assay type: cell-based; conditions: for Mean NFκB response: n=3; for NF-κB activity (inflammatory response to ionomycin/PMA): HEK293 NF-κB reporter cells, compounds at recommended concentrations, imaged over 24 h, n = 3
Method in brief: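 Reporter readout: GFP-expressing cells normalized to confluence, imaged every 90 min across 24 h after ionomycin (100 ng/mL)/PMA (10 ng/mL) stimulation of HEK293 cells pre-treated 4 h with compound (0.1% DMSO); triplicate independent experiments.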

[3] = system: ATF6 activity in Hela ATF6 reporter cells; assay: Endoplasmic reticulum stress assay (ATF6 Renilla luciferase reporter, tunicamycin); assay type: cell-based; conditions: for ATF6 activity (tunicamycin-induced endoplasmic reticulum stress): Hela ATF6 reporter cells, tunicamycin 100 ng/mL, 18 h, compounds at recommended concentrations, n = 5; for activity at 1 µM: Homo sapiens, HeLa, single replicates n=1 to n=5, read-out: ER stress [rel. ATF6 activity]
Method in brief: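 ER stress was induced by 100 ng/mL tunicamycin added 4 h after compound (0.1% DMSO) to HeLa ATF6 reporter cells. After 18 h more, Renilla luciferase signal was read and expressed relative to DMSO control, n=5 biological replicates.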

NR3A2 (ERβ) = conditions: cited from earlier work
HEK293T cells [4] = assay: Cytotoxicity: metabolic activity (WST-8 / CCK-8 assay); conditions: 1 µM; HEK293T, 24 h; WST-8; normalized to 0.1% DMSO; single replicates
HEK293T cells [5] = assay: Cytotoxicity: growth-rate (change in confluence over 24 h); conditions: 1 µM, normalized to 0.1% DMSO control, single replicates (n=1...)
HEK293T cells [6] = assay: Cytotoxicity: apoptosis induction (caspase-3/7 DEVD fluorogenic DNA dye); conditions: 1 µM; HEK293T, 24 h; apoptotic cell count normalized to 0.1% DMSO; single replicates
Gal4-VP16 = assay type: cell-based; conditions: 1 µM; vs. DMSO ctrl; single replicates n=1-3
NR3A1 (ERα) = conditions: cited from earlier work

Row | Compound | Necrosis induction [NI] (HEK293T cells [1]) | Mean NFκB response ([2]; 1 µM, 1,5 h) | Mean NFκB response ([2]; 1 µM, 4,5 h) | Mean NFκB response ([2]; 1 µM, 7,5 h) | Mean NFκB response ([2]; 1 µM, 10,5 h) | Mean NFκB response ([2]; 1 µM, 13,5 h) | Mean NFκB response ([2]; 1 µM, 16,6 h) | Mean NFκB response ([2]; 1 µM, 19,5 h) | Mean NFκB response ([2]; 1 µM, 22,5 h) | Mean NFκB response ([2]; 1 µM, 3 h) | Mean NFκB response ([2]; 1 µM, 6 h) | Mean NFκB response ([2]; 1 µM, 9 h) | Mean NFκB response ([2]; 1 µM, 12 h) | Mean NFκB response ([2]; 1 µM, 15 h) | Mean NFκB response ([2]; 1 µM, 18 h) | Mean NFκB response ([2]; 1 µM, 21 h) | Mean NFκB response ([2]; 1 µM, 24 h) | NF-κB activity (inflammatory response to ionomycin/PMA) [2] | ATF6 activity (tunicamycin-induced endoplasmic reticulum stress) [3] | activity at 1 µM [3] [%] | also measured
1 | CC[C@@H]1Cc2cc(O)ccc2C2=C1c1ccc(O)cc1C[C@H]2CC [(R,R)-THC] | 1.00 and 0.96 and 0.79 and 1.43 | 3557.96 GFP+-cells/confluence ∙ 1000 | 4261.58 GFP+-cells/confluence ∙ 1000 | 9104.56 GFP+-cells/confluence ∙ 1000 | 19176.29 GFP+-cells/confluence ∙ 1000 | 27638.90 GFP+-cells/confluence ∙ 1000 | 33810.34 GFP+-cells/confluence ∙ 1000 | 37834.35 GFP+-cells/confluence ∙ 1000 | 40864.97 GFP+-cells/confluence ∙ 1000 | 3459.65 GFP+-cells/confluence ∙ 1000 | 5471.05 GFP+-cells/confluence ∙ 1000 | 14572.22 GFP+-cells/confluence ∙ 1000 | 23454.30 GFP+-cells/confluence ∙ 1000 | 30888.37 GFP+-cells/confluence ∙ 1000 | 35947.21 GFP+-cells/confluence ∙ 1000 | 39332.93 GFP+-cells/confluence ∙ 1000 | 42047.68 GFP+-cells/confluence ∙ 1000 | no impact on NF-κB activity | mediated resolution of the tunicamycin-induced endoplasmic reticulum stress | 66 | ΔTm at 20 µM (ABL1): 5.33 °C; ΔTm at 20 µM (AURKA): 1.62 °C; ΔTm at 20 µM (CDK2): 1.76 °C; ΔTm at 20 µM (FGFR3): 0.08 °C; ΔTm at 20 µM (GSK3B): 1.59 °C; ΔTm at 20 µM (BRD4): -3.36 °C; ΔTm at 20 µM (BRPF1): -0.77 °C; ΔTm at 20 µM (CSNK1D): -0.65 °C; ΔTm at 20 µM (MAPK1): 0.61 °C; ΔTm at 20 µM (TRIM24): 0.93 °C; IC50 (NR3A2 (ERβ); (lit.), ref Supplementary Table 1, read-out: Potency [nM] IC50, NR3A2 (ERβ)): ~4 nM; rel. activity from literature, NR3A2 (ERβ): RBA to estradiol (NR3A2 (ERβ); relative binding affinity to estradiol): 25 ± 6 RBA; Metabolic activity [MA] (HEK293T cells [4]): 1.06 and 1.04 (2×) and 0.92 and 1.05 (2×) and 0.98 and 0.82; Growth rate [GR] (HEK293T cells [5]): 1.15 and 0.31 and 1.59 and 1.75 and 1.08 and 0.52 and 0.68 and 0.76 and 0.64 and 0.98; Apoptosis induction [AI] (HEK293T cells [6]): -0.98 and -0.31 and -0.46 and 0.85 and 0.74 and 1.53
2 | COc1ccc2c(c1)OC(C)(C)C(c1ccccc1)C2c1ccc(OCCN2CCCC2)cc1 (centres unmarked) [Ormeloxifene] | 1.44 and 1.00 and 0.84 and 1.46 | 3755.51 GFP+-cells/confluence ∙ 1000 | 4450.99 GFP+-cells/confluence ∙ 1000 | 10042.81 GFP+-cells/confluence ∙ 1000 | 20884.44 GFP+-cells/confluence ∙ 1000 | 30159.52 GFP+-cells/confluence ∙ 1000 | 36246.87 GFP+-cells/confluence ∙ 1000 | 41125.44 GFP+-cells/confluence ∙ 1000 | 44312.79 GFP+-cells/confluence ∙ 1000 | 3914.66 GFP+-cells/confluence ∙ 1000 | 5719.43 GFP+-cells/confluence ∙ 1000 | 15929.12 GFP+-cells/confluence ∙ 1000 | 25867.46 GFP+-cells/confluence ∙ 1000 | 33826.67 GFP+-cells/confluence ∙ 1000 | 39021.43 GFP+-cells/confluence ∙ 1000 | 42782.99 GFP+-cells/confluence ∙ 1000 | 45591.11 GFP+-cells/confluence ∙ 1000 | no impact on NF-κB activity | mediated resolution of the tunicamycin-induced endoplasmic reticulum stress | 39 | VP16 control [fold reporter gene activity] (Gal4-VP16): 1.02 fold reporter gene activity and 1.04 fold reporter gene activity and 1.38 fold reporter gene activity; ΔTm at 20 µM (ABL1; DSF, 20 µM, n=2): -0.02 °C; ΔTm at 20 µM (AURKA; DSF, 20 µM, n=2): 0.51 °C; ΔTm at 20 µM (CDK2; DSF, 20 µM, n=2): -2.04 °C; ΔTm at 20 µM (FGFR3; DSF, 20 µM, n=2): 0.15 °C; ΔTm at 20 µM (GSK3B; DSF, 20 µM, n=2): 0 °C; ΔTm at 20 µM (BRD4; DSF, 20 µM, n=2): -3.83 °C; ΔTm at 20 µM (BRPF1; DSF, 20 µM, n=2): -2.59 °C; ΔTm at 20 µM (CSNK1D; DSF, 20 µM, n=2): -0.1 °C; ΔTm at 20 µM (MAPK1; DSF, 20 µM, n=2): -2.68 °C; ΔTm at 20 µM (TRIM24; DSF, 20 µM, n=2): -3.44 °C; EC50 (NR3A1 (ERα); (lit.), ref Supplementary Table 1, read-out: Potency [nM] EC50, NR3A1 (ERα)): 13 ± 0.4 nM; rel. activity from literature, NR3A1 (ERα): % of moxestrol (NR3A1 (ERα); of moxestrol): 25 ± 2%; Metabolic activity [MA] (HEK293T cells [4]): 1.06 and 1.01 and 0.96 and 1.00 and 1.02 and 0.99 and 1.05 (2×); Growth rate [GR] (HEK293T cells [5]): 0.58 and 1.95 and 0.92 and 1.05 and 0.91 and 0.78 and 1.00 and 2.25 and 0.88 and 10.36; Apoptosis induction [AI] (HEK293T cells [6]): 0.93 and 1.23 and 0.90 and 1.47 and 0.53 and 0.80
